Measured values reported in US8288404B2, “Pyrrolidine GPR40 modulators” (Bristol-Myers Squibb Company, priority 2009, dated 2012).
Structures can show the parent of a compound that is named as a salt.

Biological target: T1, hGPR40 (Homo sapiens, UniProt O14842)
T1 construct: 3xFLAG; expressed in transfected cells
Experiment: FDSS-Based Intracellular Calcium Assay (Human GRP40 In Vitro assay)
Settings: cell lines expressing GPR40, intracellular Ca2+ response, FDSS reader
Description: FDSS-Based Intracellular Calcium Assay
Cell lines expressing GPR40 are generated using the pDEST 3xflag gene expression system and are cultured in culture medium comprising the following components: F12 (Gibco #11765), 10% lipid deprived fetal bovine serum, 250 ug/ml zeocin and 500 ug/ml G418. To conduct the fluorescent imaging plate reader (FLIPR)-based calcium flux assay to measure intracellular Ca^2+ response, cells expressing GPR40 are plated on 384 well plates (BD Biocoat #356697) at a density of 20,000 cells/20 ul medium per well in phenol red and serum-free DMEM (Gibco #21063-029) and incubated overnight. Using BD kit #s 80500-310 or -301, the cells are incubated with 20 ul per well of Hank's buffered salt solution with 1.7 mM probenecid and Fluo-3 at 37° C. for 30 minutes. Compounds are dissolved in DMSO and diluted to desired concentrations with assay buffer and added to the cells as 3× solution (20 ul per well). Run fluorescence/luminescence reader FDSS (Hamamatsu) to read intracellular Ca^2+ response.
Table 1 below lists hGPR40 EC50 values measured for the following examples.

T1 sequence (O14842 whole entry): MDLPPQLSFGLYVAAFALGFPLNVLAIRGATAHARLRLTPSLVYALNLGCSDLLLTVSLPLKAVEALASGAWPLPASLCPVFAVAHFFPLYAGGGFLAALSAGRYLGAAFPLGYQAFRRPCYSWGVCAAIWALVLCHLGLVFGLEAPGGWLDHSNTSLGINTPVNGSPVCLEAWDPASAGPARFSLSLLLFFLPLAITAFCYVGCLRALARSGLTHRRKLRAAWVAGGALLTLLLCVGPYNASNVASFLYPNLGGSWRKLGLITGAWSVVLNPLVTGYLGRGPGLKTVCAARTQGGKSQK

Row | SMILES | EC50 [nM]
1 | Cc1ccccc1Oc1ccc(N2C[C@@H](C(F)(F)F)C[C@H]2CC(=O)O)cc1 [Example 41, 2-((2S,4S)-1-(4-(o-tolyloxy)phenyl)-4-(trifluoromethyl)pyrrolidin-2-yl)acetic acid, TFA] | 56
2 | Cc1ccccc1Oc1ccc(N2CCC[C@H]2CC(=O)O)cc1 [Example 5, (S)-2-(1-(4-(o-tolyloxy)phenyl)pyrrolidin-2-yl)acetic acid, HCl] | 65
3 | Cc1cccc(C)c1Oc1ccc(N2CCC[C@@H]2CC(=O)O)cc1 [Example 4, (R)-2-(1-(4-(2,6-dimethylphenoxy)phenyl)pyrrolidin-2-yl)acetic acid, HCl] | 3800
4 | Cc1ccccc1Cc1ccc(N2C[C@@H](C(F)(F)F)C[C@H]2CC(=O)O)cc1 [Example 40, 2-((2S,4S)-1-(4-(2-methylbenzyl)phenyl)-4-(trifluoromethyl)pyrrolidin-2-yl)acetic acid, TFA] | 61
5 | COc1ccc(Oc2ccc(N3C[C@@H](C(F)(F)F)C[C@H]3CC(=O)O)cc2)c(C)c1 [Example 50, 2-((2S,4S)-1-(4-(4-methoxy-2-methylphenoxy)phenyl)-4-(trifluoromethyl)pyrrolidin-2-yl)acetic acid, TFA] | 55
6 | Cc1ccccc1Oc1ccc(N2CCC[C@H]2CC(=O)O)cc1F [Example 1, (S)-2-(1-(3-fluoro-4-(o-tolyloxy)phenyl)pyrrolidin-2-yl)acetic acid, TFA] | 1630
7 | Cc1ccccc1Sc1ccc(N2CCC[C@H]2CC(=O)O)cc1 [Example 44, (S)-2-(1-(4-(o-tolylthio)phenyl)pyrrolidin-2-yl)acetic acid, TFA] | 352

Second part, the molecule after the results:

Row | EC50 [nM] | SMILES
8 | 2320 | CO[C@H]1C[C@@H](CC(=O)O)N(c2ccc(Oc3ccccc3C)cc2)C1 [Example 56, 2-((2S,4S)-4-methoxy-1-(4-(o-tolyloxy)phenyl)pyrrolidin-2-yl)acetic acid, TFA]
9 | 331 | O=C(O)C[C@@H]1CCCN1c1ccc(Cc2ccc(OCc3ccccc3)cc2)cc1 [Example 58, (S)-2-(1-(4-(4-(benzyloxy)benzyl)phenyl)pyrrolidin-2-yl)acetic acid, TFA]
10 | 305 | O=C(O)C[C@@H]1C[C@H](C(F)(F)F)CN1c1ccc(Oc2ccccc2C(F)(F)F)cc1 [Example 52, 2-((2S,4S)-4-(trifluoromethyl)-1-(4-(2-(trifluoromethyl)phenoxy)phenyl)pyrrolidin-2-yl)acetic acid, TFA]
11 | 314 | COc1ccc(F)c(-c2cccc(Oc3ccc(N4CCC[C@H]4CC(=O)O)cc3)c2C)c1 [Example 68, 2-((2S)-1-(4-(2′-fluoro-5′-methoxy-2-methylbiphenyl-3-yloxy)phenyl)pyrrolidin-2-yl)acetic acid, TFA]
12 | 4390 | Cc1ccccc1COc1cc(N2CCC[C@H]2CC(=O)O)ccn1 [Example 76, (S)-2-(1-(2-(2-methylbenzyloxy)pyridin-4-yl)pyrrolidin-2-yl)acetic acid, TFA]
13 | 4340 | Cc1ccc(COc2ccc(N3CCC[C@@H]3CC(=O)O)cc2)cc1 [Example 109]
